# Experimental data taken from ChEMBL document CHEMBL5725500, “Substituted spiropiperidinyl compounds useful as GPR120 agonists” (2017).
# Molecular target: T1, Free fatty acid receptor 4 (Homo sapiens, UniProt Q5NUL3)
# T1 sequence (Q5NUL3 whole entry): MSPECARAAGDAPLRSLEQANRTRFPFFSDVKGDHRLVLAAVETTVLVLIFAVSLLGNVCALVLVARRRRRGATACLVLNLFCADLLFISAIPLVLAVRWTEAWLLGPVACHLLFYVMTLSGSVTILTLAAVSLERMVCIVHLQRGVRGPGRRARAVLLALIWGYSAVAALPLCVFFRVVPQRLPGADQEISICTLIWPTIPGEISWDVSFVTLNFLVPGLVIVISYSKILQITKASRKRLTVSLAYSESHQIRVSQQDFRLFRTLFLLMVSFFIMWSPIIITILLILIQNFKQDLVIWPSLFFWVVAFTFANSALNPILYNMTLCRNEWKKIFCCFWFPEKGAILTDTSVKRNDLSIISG
# Assay: FLIPR Assay: On the day before the measurement day, CHO cells expressing human GPR120 were plated at 10000 cells per well in a 384-well black plate (#3702, Corning) and incubated overnight in a CO2 incubator. On the day of the measurement, 4 μM Fluo-4 AM (fluorescence calcium indicator reagent) was incubated to be introduced into the human GPR120 expression CHO cells in the presence of 0.08% Pluronic F-127 in a CO2 incubator for 90 minutes. To the cells was added the test compound diluted with HBSS solution containing 20 mM HEPES and 2.5 mM probenecid. Variations in the intracellular calcium concentration were measured by Fluorescence Imaging Plate Reader (FLIPR; Molecular Devices) to examine the agonist action, and EC50 values were calculated.
# Format: cell-based
row,Compound,EC50 [nM]
1,OCCC1CCC2(CC1)CCN(c1cc(OC(F)(F)F)ccc1Cl)CC2,472
2,O=C(O)CC1CCC2(CCN(c3cc(OC(F)(F)F)ccc3F)CC2)OC1 (configuration not stated),1210
3,O=C(O)C[C@H]1CCC2(CCN(c3cc(OC4CCC4)ccc3Cl)CC2)OC1,1650
4,Cc1ccnc(Oc2ccc(C#N)c(N3CCC4(CCC(CC(=O)O)CC4)CC3)c2)c1,4970

# Results, then the molecule that gave them:
row,EC50 [nM],Compound
1,4220,Cc1cccc(Oc2ccc(C#N)c(N3CCC4(CCC(CC(=O)O)CC4)CC3)c2)n1
2,3240,O=C(O)C[C@@H]1CCC2(CCN(c3cc(OC4CCC4)ccc3F)CC2)OC1
3,2380,COc1cc(F)cc(N2CCC3(CC2)CC(CC(=O)O)CO3)c1 (configuration not stated)
